Assay results: patent publication US7566712B2, “Biaryl piperazinyl-pyridine analogues” (Neurogen Corporation, priority 2003, dated 2009)
pIC50: −log10 of the molar value.

target: T1, human capsaicin receptor (Homo sapiens, UniProt Q8NER1); experiment: Calcium mobilization assay, determination of antagonist activity (Example 6); assay type: cell-based; conditions: Table II; IC50 determined as described in Example 6
T1 construct: pBK-CMV expression construct encoding the full length human capsaicin receptor; expressed in transfected cells
How it was run: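 Antagonism measured as inhibition of capsaicin-evoked (final concentration = EC50, from an 8-point 1 nM–3 μM curve) Fluo-3 calcium signal in stable hVR1-HEK293 cells. Test compounds at 1–5 μM final, 0.5–6 h dark preincubation at room temperature. IC50 = concentration giving 50% reduction versus agonist-only response.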

T1 sequence (Q8NER1 whole entry): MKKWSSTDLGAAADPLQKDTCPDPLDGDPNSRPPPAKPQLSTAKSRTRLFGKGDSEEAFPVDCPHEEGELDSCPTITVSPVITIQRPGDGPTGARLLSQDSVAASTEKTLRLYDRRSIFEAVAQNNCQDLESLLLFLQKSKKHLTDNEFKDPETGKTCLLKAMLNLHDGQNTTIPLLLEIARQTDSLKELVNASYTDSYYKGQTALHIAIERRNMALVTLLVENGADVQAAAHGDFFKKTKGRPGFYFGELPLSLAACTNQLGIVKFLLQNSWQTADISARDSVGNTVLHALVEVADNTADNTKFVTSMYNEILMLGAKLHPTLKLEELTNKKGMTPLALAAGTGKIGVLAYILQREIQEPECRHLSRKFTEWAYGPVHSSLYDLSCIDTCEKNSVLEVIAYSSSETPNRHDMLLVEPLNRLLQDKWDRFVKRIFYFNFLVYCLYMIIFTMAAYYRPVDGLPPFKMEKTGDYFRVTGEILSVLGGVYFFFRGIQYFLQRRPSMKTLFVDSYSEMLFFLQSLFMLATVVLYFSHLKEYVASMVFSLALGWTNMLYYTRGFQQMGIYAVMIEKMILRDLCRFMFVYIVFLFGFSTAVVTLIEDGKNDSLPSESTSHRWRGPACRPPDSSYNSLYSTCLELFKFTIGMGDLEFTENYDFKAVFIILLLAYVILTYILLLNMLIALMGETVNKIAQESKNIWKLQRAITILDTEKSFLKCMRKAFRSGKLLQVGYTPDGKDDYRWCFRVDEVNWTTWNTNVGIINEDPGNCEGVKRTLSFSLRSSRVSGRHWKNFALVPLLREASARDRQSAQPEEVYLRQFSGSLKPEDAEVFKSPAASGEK

pIC50, ≥ 6.00:
COCCCOc1nc(-c2ccc(F)c(Cl)c2)cc(N2CCN(c3ncccc3C(F)(F)F)CC2)n1 [Example 555, 4-(3-chloro-4-fluorophenyl)-2-(3-methoxypropoxy)-6-{4-[3-(trifluoromethyl)pyridin-2-yl]piperazin-1-yl}pyrimidine]

same assay, conditions: Table II; IC50 determined as described in Example 6 (antagonist activity, calcium mobilization)

pIC50, ≥ 6.00:
Cc1ccc(-c2cc(N3CCN(c4ncccc4Cl)C[C@H]3C)nc(N3CCC[C@@H]3C)n2)cc1F [Example 994, 4-[(2R)-4-(3-chloropyridin-2-yl)-2-methylpiperazin-1-yl]-6-(3-fluoro-4-methylphenyl)-2-[(2S)-2-methylpyrrolidin-1-yl]pyrimidine]
C[C@H]1CN(c2nccnc2Cl)CCN1c1cc(-c2ccc(F)c(Cl)c2)nc(Cl)n1 [Example 971, 2-chloro-4-(3-chloro-4-fluorophenyl)-6-[(2S)-4-(3-chloropyrazin-2-yl)-2-methylpiperazin-1-yl]pyrimidine]

same assay, conditions: Table II; determined as described in Example 6 (antagonist activity); "*" = 1 micromolar or less

pIC50, ≥ 6.00:
O[C@H]1CCN(c2nc(-c3ccc(F)c(Cl)c3)cc(N3CCN(c4ncccc4C(F)(F)F)CC3)n2)C1 [Example 772, (3S)-1-(4-(3-chloro-4-fluorophenyl)-6-{4-[3-(trifluoromethyl)pyridin-2-yl]piperazin-1-yl}pyrimidin-2-yl)pyrrolidin-3-oI]
C[C@@H]1CN(c2ncccc2C(F)(F)F)CCN1c1cc(-c2ccc(F)cc2)nc(N2CCCC2)n1 [Example 782, 4-(4-fluorophenyl)-6-{(2R)-2-methyl-4-[3-(trifluoromethyl)pyridin-2-yl]piperazin-1-yl}-2-pyrrolidin-1-ylpyrirnidine]
C[C@@H]1CN(c2ncccc2C(F)(F)F)CCN1c1cc(-c2ccc(F)c(F)c2)nc(N2CCCCC2)n1 [Example 793, 4-(3,4-difluorophenyl)-6-{(2R)-2-methyl-4-[3-(trifluoromethyl)pyridin-2-yl]piperazin-1-yl}-2-piperidin-1-ylpyrimidine]
FC(F)(F)c1cccnc1N1CCN(c2cc(-c3cccc(Cl)c3)nc(N3CCN4CCC[C@H]4C3)n2)CC1 [Example 892, (8aS)-2-(4-(3-chlorophenyl)-6-{4-[3-(trifluoromethyl)pyridin-2-yl]piperazin-1-yl}pyrimidin-2-yl)octahydropyrrolo[1,2-a]pyrazine]
CCCN1CC=C(c2nc(-c3ccc(F)c(Cl)c3)cc(N3CCN(c4ncccc4C(F)(F)F)CC3)n2)CC1 [Example 863, 4-(3-chloro-4-fluorophenyl)-2-(1-propyl-1,2,3,6-tetrahydropyridin-4-yl)-6-{4-[3-(trifluoromethyl)pyridin-2-yl]piperazin-1-yl}pyrimidine]
Cc1cc(-c2cc(N3CCN(c4ncccc4Cl)C[C@H]3C)nc(N(C)C(C)CO)n2)ccc1F (some centres unmarked) [Example 905, 2-[[4-[4-(3-chloropyridin-2-yl)-2-methylpiperazin-1-yl]-6-(4-fluoro-3-methylphenyl)pyrimidin-2-yl](methyl)amino]propan-1-ol]
C[C@H]1CN(c2ncccc2Cl)CCN1c1cc(-c2ccc(F)c(Cl)c2)nc(Cl)n1 [Example 944, 2-chloro-4-(3-chloro-4-fluorophenyl)-6-[(2S)-4-(3-chloropyridin-2-yl)-2-methylpiperazin-1-yl]pyrimidine]

same assay, conditions: determined as described in Example 6 (calcium mobilization, antagonist activity); Table II

pIC50, ≥ 6.00:
Cc1cccnc1N1CCN(c2cc(-c3ccc(F)c(Cl)c3)nc(N3CCCC3C)n2)CC1 (centres unmarked) [Example 695, 4-(3-chloro-4-fluorophenyl)-6-[4-(3-methylpyridin-2-yl)piperazin-1-yl]-2-(2-methylpyrrolidin-1-yl)pyrimidine]
Fc1ccc(-c2cc(N3CCN(c4ncccc4C(F)(F)F)CC3)nc(-c3ccncc3)n2)cc1Cl [Example 617, 4-(3-chloro-4-fluorophenyl)-2-pyridin-4-yl-6-{4-[3-(trifluoromethyl)pyridin-2-yl]piperazin-1-yl}pyrimidine]
Cc1cccnc1N1CCN(c2cc(-c3ccc(F)c(Cl)c3)nc(N3CCOCC3)n2)CC1 [Example 585, 4-{4-(3-chloro-4-fluorophenyl)-6-[4-(3-methylpyridin-2-yl)piperazin-1-yl]pyrimidin-2-yl}morpholine]
CS(=O)(=O)C1CCN(c2nc(-c3ccc(F)c(Cl)c3)cc(N3CCN(c4ncccc4C(F)(F)F)CC3)n2)CC1 [Example 655, 4-(3-chloro-4-fluorophenyl)-2-[4-(methylsulfonyl)piperidin-1-yl]-6-{4-[3-(trifluoromethyl)pyridin-2-yl]piperazin-1-yl}pyrimidine]
CC(=O)c1nc(-c2ccc(F)c(Cl)c2)cc(N2CCN(c3ncccc3C(F)(F)F)CC2)n1 [Example 671, 1-(4-(3-chloro-4-fluorophenyl)-6-{4-[3-(trifluoromethyl)pyridin-2-yl]piperazin-1-yl}pyrimidin-2-yl)ethanone]
CC1CNCCN1c1nc(-c2ccc(F)c(Cl)c2)cc(N2CCN(c3ncccc3C(F)(F)F)CC2)n1 (centres unmarked) [Example 629, 4-(3-chloro-4-fluorophenyl)-2-(2-methylpiperazin-1-yl)-6-{4-[3-(trifluoromethyl)pyridin-2-yl]piperazin-1-yl}pyrimidine]
C[C@@H]1CN(c2ncccc2Cl)CCN1c1cc(-c2ccc(F)c(Cl)c2)nc(SCc2ccccc2)n1 [Example 722, 2-(benzylthio)-4-(3-chloro-4-fluorophenyl)-6-[(2R)-4-(3-chloropyridin-2-yl)-2-methylpiperazin-1-yl]pyrimidine]
CC(C)n1ccnc1-c1nc(-c2ccc(F)c(Cl)c2)cc(N2CCN(c3ncccc3C(F)(F)F)CC2)n1 [Example 683, 4-(3-chloro-4-fluorophenyl)-2-(1-isopropyl-1H-imidazol-2-yl)-6-{4-[3-(trifluoromethyl)pyridin-2-yl]piperazin-1-yl}pyrim:dine]
CC(=O)N(C)c1nc(-c2ccc(F)c(Cl)c2)cc(N2CCN(c3ncccc3C(F)(F)F)CC2)n1 [Example 679, N-(4-(3-chloro-4-fluorophenyl)-6-{4-[3-(trifluoromethyl)pyridin-2-yl]piperazin-1-yl}pyrimidin-2-yl)-N-methylacetamide]
Cc1cc(-c2cc(N3CCN(c4ncccc4F)CC3)nc(N3CCCC3C)n2)ccc1F (centres unmarked) [Example 708, 4-(4-fluoro-3-methylphenyl)-6-[4-(3-fluoropyridin-2-yl)piperazin-1-yl]-2-(2-methylpyrrolidin-1-yl)pyrimidine]
Cc1cccnc1N1CCN(c2cc(-c3ccc(F)c(Cl)c3)nc(N3CCOCC3)n2)CC1C (centres unmarked) [Example 646, 4-{4-(3-chloro-4-fluorophenyi)-6-[3-methyl-4-(3-methylpyridin-2-yl)piperazin-1-yl]pyrimidin-2-yl}morpholine]
CCN(c1nc(-c2ccc(F)c(Cl)c2)cc(N2CCN(c3ncccc3C(F)(F)F)CC2)n1)C(C)C [Example 601, 4-(3-chloro-4-fluorophenyl)-N-ethyl-N-isopropyl-6-{4-[3-(trifluoromethyl)pyridin-2-yl]piperazin-1-yl}pyrimidin-2-amine]
Fc1ccc(-c2cc(N3CCN(c4ncccc4C(F)(F)F)CC3)nc(N3CCC3)n2)cc1Cl [Example 710, 2-azetidin-1-yl-4-(3-chloro-4-fluorophenyl)-6-{4-[3-(trifluoromethyl)pyridin-2-yl]piperazin-1-yl}pyrimidine]
Cc1cc(-c2cc(N3CCN(c4ncccc4Cl)CC3)nc(N3CCCC3)n2)ccc1F [Example 697, 4-[4-(3-chloropyridin-2-yl)piperazin-1-yl]-6-(4-fluoro-3-methylphenyl)-2-pyrrolidin-1-ylpyrimidine]
CC(=O)c1nc(-c2ccc(F)c(C)c2)cc(N2CCN(c3ncccc3C(F)(F)F)CC2)n1 [Example 672, 1-(4-(4-fluoro-3-methylphenyl)-6-{4-[3-(trifluoromethyl)pyridin-2-yl]piperazin-1-yl}pyrimidin-2-yl)ethanone]
CNC[C@@H]1CCCN1c1nc(-c2ccc(F)c(Cl)c2)cc(N2CCN(c3ncccc3C(F)(F)F)CC2)n1 [Example 694, 1-[(2S)-1-(4-(3-chloro-4-fluorophenyl)-6-{4-[3-(trifluoromethyl)pyridin-2-yl]piperazin-1-yl}pyrimidin-2-yl)pyrrolidin-2-yl]-N-methylmethanamine]
O=C1NCC2(CCN(c3nc(-c4ccc(F)c(Cl)c4)cc(N4CCN(c5ncccc5C(F)(F)F)CC4)n3)CC2)O1 [Example 581, 8-(4-(3-chloro-4-fluorophenyl)-6-{4-[3-(trifluoromethyl)pyridin-2-yl]piperazin-1-yl}pyrimidin-2-yl)-1-oxa-3,8-diazaspiro[4.5]decan-2-one]
Cc1cc(-c2cc(N3CCN(c4ncccc4C(F)(F)F)CC3)nc(N3CCN(S(C)(=O)=O)CC3)n2)ccc1F [Example 688, 4-(4-fluoro-3-methylphenyl)-2-[4-(methylsulfonyl)piperazin-1-yl]-6-{4-[3-(trifluoromethyl)pyridin-2-yl]piperazin-1-yl}pyrimidine]
CC1CCCN1c1nc(-c2ccc(F)c(Cl)c2)cc(N2CCN(c3ncccc3C(F)(F)F)C[C@H]2C)n1 (stereo partly drawn) [Example 764, 4-(3-chloro-4-fluorophenyl)-2-(2-methylpyrrolidin-1-yl)-6-{(2R)-2-methyl-4-[3-(trifluoromethyl)pyridin-2-yl]piperazin-1-yl}pyrimidine]
